Target: T1, human PTH1 receptor (Homo sapiens, UniProt Q03431)
T1 sequence (Q03431 27-593): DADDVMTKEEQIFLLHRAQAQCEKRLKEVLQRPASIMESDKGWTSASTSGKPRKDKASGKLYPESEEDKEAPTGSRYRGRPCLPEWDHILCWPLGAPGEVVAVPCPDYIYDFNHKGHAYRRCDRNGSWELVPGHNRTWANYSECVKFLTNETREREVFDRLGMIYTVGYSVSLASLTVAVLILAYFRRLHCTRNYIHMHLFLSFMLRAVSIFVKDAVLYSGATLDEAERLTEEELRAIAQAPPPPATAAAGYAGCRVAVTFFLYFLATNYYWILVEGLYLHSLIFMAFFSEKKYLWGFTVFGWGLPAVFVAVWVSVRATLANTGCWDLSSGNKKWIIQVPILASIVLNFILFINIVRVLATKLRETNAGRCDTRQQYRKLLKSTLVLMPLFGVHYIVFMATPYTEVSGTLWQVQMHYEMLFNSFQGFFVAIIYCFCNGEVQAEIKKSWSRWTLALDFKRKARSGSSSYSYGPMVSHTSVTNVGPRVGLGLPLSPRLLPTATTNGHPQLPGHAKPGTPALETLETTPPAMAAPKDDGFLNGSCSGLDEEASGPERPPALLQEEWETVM
Test: In vitro cAMP signal activity in HKRK-B7 cells (LLC-PK1 cells overexpressing the human PTH1 receptor)
Type: cell-based

[1] = HKRK-B7 cells, compound at 1×10^−3 M, cAMP produced as percentage of that produced by hPTH(1-34) at 100 nM

cAMP production activity (%) [1] | SMILES | cAMP production activity (%) (0.1 µM)
74% | COc1cc(NC(C)=O)ccc1CCS(=O)(=O)N1CCC2(CC1)N=C(C1CCC(C)CC1)NC2=O (stereo not shown) [Compound 655, N-(3-Methoxy-4-{2-[2-(4-methyl-cyclohexyl)-4-oxo-1,3,8-triaza-spiro[4.5]dec-1-ene-8-sulfonyl]-ethyl}-phenyl)-acetamide] | 
14% | Cc1cc(N2C(C)(C)C(=O)NS2(=O)=O)cc(C)c1CCS(=O)(=O)N1CCC2(CC1)N=C(C1CCC(C)CC1)NC2=O (stereo not shown) [Compound 656, 8-{2-[4-(3,3-dimethyl-1,1,4-trioxo-1λ^6-[1,2,5]thiadiazolidin-2-yl)-2,6-dimethyl-phenyl]-ethanesulfonyl}-2-(4-methyl-cyclohexyl)-1,3,8-triaza-spiro[4.5]dec-1-en-4-one] | 
124% | CCCCCCCCCC1=NC2(CCN(S(=O)(=O)CCc3ccc(N4CCOCC4=O)cc3C)CC2)C(=O)N1 [Compound 657, 8-{2-[2-Methyl-4-(3-oxo-morpholin-4-yl)-phenyl]-ethanesulfonyl}-2-nonyl-1,3,8-triaza-spiro[4.5]dec-1-en-4-one] | 
84% | CC(C)COC(=O)NCc1ccc(CCS(=O)(=O)N2CCC3(CC2)N=C(C2CCCCC2)NC3=O)cc1 [Compound 658, {4-[2-(2-Cyclohexyl-4-oxo-1,3,8-triaza-spiro[4.5]dec-1-ene-8-sulfonyl)-ethyl]-benzyl}-carbamic acid isobutyl ester] | 
46% | O=C(CO)NCc1ccc(CCS(=O)(=O)N2CCC3(CC2)N=C(C2CCCCC2)NC3=O)cc1 [Compound 659, N-{4-[2-(2-cyclohexyl-4-oxo-1,3,8-triaza-spiro[4.5]dec-1-ene-8-sulfonyl)-ethyl]-benzyl}-2-hydroxy-acetamide] | 
60% | O=C(CNc1ccc(CCS(=O)(=O)N2CCC3(CC2)N=C(C2CCCCC2)NC3=O)c(C(F)(F)F)c1)NCCCCO [Compound 660, 2-{4-[2-(2-cyclohexyl-4-oxo-1,3,8-triaza-spiro[4.5]dec-1-ene-8-sulfonyl)-ethyl]-3-trifluoromethyl-phenylamino}-N-(4-hydroxy-butyl)-acetamide] | 
45% | CC(C)COC(=O)Nc1ccc(CCS(=O)(=O)N2CCC3(CC2)N=C(C2CCCCC2)NC3=O)c(C(F)(F)F)c1 [Compound 661, {4-[2-(2-cyclohexyl-4-oxo-1,3,8-triaza-spiro[4.5]dec-1-ene-8-sulfonyl)-ethyl]-3-trifluoromethyl-phenyl}-carbamic acid isobutyl ester] | 
23% | O=C(Nc1ccc(CCS(=O)(=O)N2CCC3(CC2)N=C(C2CCCCC2)NC3=O)c(C(F)(F)F)c1)c1ccccc1 [Compound 662, N-{4-[2-(2-cyclohexyl-4-oxo-1,3,8-triaza-spiro[4.5]dec-1-ene-8-sulfonyl)-ethyl]-3-trifluoromethyl-phenyl}-benzamide] | 
27% | O=C1NC(C2CCCCC2)=NC12CCN(S(=O)(=O)CCc1ccc3[nH]c(=O)sc3c1)CC2 [Compound 663, 2-cyclohexyl-8-[2-(2-oxo-2,3-dihydro-benzothiazol-6-yl)-ethanesulfonyl]-1,3,8-triaza-spiro[4.5]dec-1-en-4-one] | 
77% | CC(=O)NCCNS(=O)(=O)c1ccc(CCS(=O)(=O)N2CCC3(CC2)N=C(C2CCCCC2)NC3=O)c(C)c1 [Compound 664, N-(2-{4-[2-(2-cyclohexyl-4-oxo-1,3,8-triaza-spiro[4.5]dec-1-ene-8-sulfonyl)-ethyl]-3-methyl-benzenesulfonylamino}-ethyl)-acetamide] | 
54% | Cc1cc(NCC(=O)NCCN(C)C)ccc1CCS(=O)(=O)N1CCC2(CC1)N=C(c1cccc(OC(F)(F)F)c1)NC2=O [Compound 665, N-(2-Dimethylamino-ethyl)-2-(3-methyl-4-{2-[4-oxo-2-(3-trifluoromethoxy-phenyl)-1,3,8-triaza-spiro[4.5]dec-1-ene-8-sulfonyl]-ethyl}-phenylamino)-acetamide] | 
51% | Cc1cc(C(=O)N2C[C@@H](C)O[C@@H](C)C2)ccc1CCS(=O)(=O)N1CCC2(CC1)N=C(c1cccc(OC(F)(F)F)c1)NC2=O [Compound 666, 8-{2-[4-((2R,6S)-2,6-dimethyl-morpholine-4-carbonyl)-2-methyl-phenyl]-ethanesulfonyl}-2-(3-trifluoromethoxy-phenyl)-1,3,8-triaza-spiro[4.5]dec-1-en-4-one] | 
 | Cc1cc(S(=O)(=O)NCC(F)(F)C(F)(F)C(F)(F)F)ccc1CCS(=O)(=O)N1CCC2(CC1)N=C(c1cccc(C(F)(F)F)c1)NC2=O [Compound 667, N-(2,2,3,3,4,4,4-Heptafluoro-butyl)-3-methyl-4-{2-[4-oxo-2-(3-trifluoromethyl-phenyl)-1,3,8-triaza-spiro[4.5]dec-1-ene-8-sulfonyl]-ethyl}-benzenesulfonamide] | 40%
40% | COc1cccc(CCS(=O)(=O)N2CCC3(CC2)N=C([C@H]2CC[C@H](C)CC2)NC3=O)c1C [Compound 668, 8-[2-(3-Methoxy-2-methyl-phenyl)-ethanesulfonyl]-2-(4-methyl-cyclohexyl)-1,3,8-triaza-spiro[4.5]dec-1-en-4-one] | 
58% | COc1c(N(C)C(=O)OC(C)(C)C)cc(C)c(CCS(=O)(=O)N2CCC3(CC2)N=C([C@H]2CC[C@H](C)CC2)NC3=O)c1C [Compound 669, (2-methoxy-3,5-dimethyl-4-{2-[2-(4-methyl-cyclohexyl)-4-oxo-1,3,8-triaza-spiro[4.5]dec-1-ene-8-sulfonyl]-ethyl}-phenyl)-methyl-carbamic acid tert-butyl ester] | 
123% | CCCCCCCCCC1=NC2(CCN(S(=O)(=O)CCc3ccc(N4C(=O)CC[C@H]4CO)cc3C)CC2)C(=O)N1 [Compound 670, 8-{2-[4-((S)-2-Hydroxymethyl-5-oxo-pyrrolidin-1-yl)-2-methyl-phenyl]-ethanesulfonyl}-2-nonyl-1,3,8-triaza-spiro[4.5]dec-1-en-4-one] | 
81% | Cc1cc2[nH]c(=O)oc2c(C)c1CCS(=O)(=O)N1CCC2(CC1)N=C([C@H]1CC[C@H](C)CC1)NC2=O [Compound 671, 8-[2-(5,7-Dimethyl-2-oxo-2,3-dihydro-benzoxazol-6-yl)-ethanesulfonyl]-2-(4-methyl-cyclohexyl)-1,3,8-triaza-spiro[4.5]dec-1-en-4-one] | 
47% | COC(=O)NCCc1ccc(CCS(=O)(=O)N2CCC3(CC2)N=C(C2CCCCC2)NC3=O)cc1 [Compound 672, (2-{4-[2-(2-Cyclohexyl-4-oxo-1,3,8-triaza-spiro[4.5]dec-1-ene-8-sulfonyl)-ethyl]-phenyl}-ethyl)-carbamic acid methyl ester] | 
27% | Cc1cc(CN(C)C(=O)OC(C)(C)C)ccc1CCS(=O)(=O)N1CCC2(CC1)N=C(C1CCCCC1)NC2=O [Compound 673, {4-[2-(2-cyclohexyl-4-oxo-1,3,8-triaza-spiro[4.5]dec-1-ene-8-sulfonyl)-ethyl]-3-methyl-benzyl}-methyl-carbamic acid tert-butyl ester] | 
68% | Cc1cc(N2CCN(CCO)C2=O)ccc1CCS(=O)(=O)N1CCC2(CC1)N=C(c1cccc(C(F)(F)F)c1)NC2=O [Compound 674, 8-(2-{4-[3-(2-Hydroxy-ethyl)-2-oxo-imidazolidin-1-yl]-2-methyl-phenyl}-ethanesulfonyl)-2-(3-trifluoromethyl-phenyl)-1,3,8-triaza-spiro[4.5]dec-1-en-4-one] | 
68% | Cc1cc(S(=O)(=O)NCC(N)=O)ccc1CCS(=O)(=O)N1CCC2(CC1)N=C(c1cccc(OC(F)(F)F)c1)NC2=O [Compound 675, 2-(3-Methyl-4-{2-[4-oxo-2-(3-trifluoromethoxy-phenyl)-1,3,8-triaza-spiro[4.5]dec-1-ene-8-sulfonyl]-ethyl}-benzenesulfonylamino)-acetamide] | 
69% | CCCCC1CCC(C2=NC3(CCN(S(=O)(=O)CCc4c(C)cc(N5C(=O)CNC5=O)cc4C)CC3)C(=O)N2)CC1 (stereo not shown) [Compound 677, 3-(4-{2-[2-(4-Butyl-cyclohexyl)-4-oxo-1,3,8-triaza-spiro[4.5]dec-1-ene-8-sulfonyl]-ethyl}-3,5-dimethyl-phenyl)-imidazolidine-2,4-dione] | 
86% | CC(=O)N(c1ccc(CCS(=O)(=O)N2CCC3(CC2)N=C(c2cccc(OC(F)(F)F)c2)NC3=O)c(C)c1)C1CCCC1 [Compound 678, N-Cyclopentyl-N-(3-methyl-4-{2-[4-oxo-2-(3-trifluoromethoxy-phenyl)-1,3,8-triaza-spiro[4.5]dec-1-ene-8-sulfonyl]-ethyl}-phenyl)-acetamide] | 
65% | Cc1c(CCS(=O)(=O)N2CCC3(CC2)N=C(C2CCC(C)CC2)NC3=O)ccc(N(C)C(N)=O)c1C (stereo not shown) [Compound 679, 1-(2,3-Dimethyl-4-{2-[2-(4-methyl-cyclohexyl)-4-oxo-1,3,8-triaza-spiro[4.5]dec-1-ene-8-sulfonyl]-ethyl}-phenyl)-1-methyl-urea] | 

SMILES | cAMP production activity (%) [1] | cAMP production activity (%) (0.1 µM)
Cc1cc(OCCC(O)CO)cc(C)c1CCS(=O)(=O)N1CCC2(CC1)N=C(c1cccc(OC(F)(F)F)c1)NC2=O (stereo not shown) [Compound 676, 8-{2-[4-(3,4-dihydroxy-butoxy)-2,6-dimethyl-phenyl]-ethanesulfonyl}-2-(3-trifluoromethoxy-phenyl)-1,3,8-triaza-spiro[4.5]dec-1-en-4-one] | 69% | 
